IC50 data for nine compounds are collected here from ChEMBL document CHEMBL3351925, “The Oxeatamides: nitrogenous spongian diterpenes from the New Zealand marine sponge Darwinella oxeata” (J Nat Prod, 2014).

This assay can be described thus: Cytotoxicity against human HL60 cells after 48 hrs by MTT assay. The class given is functional, cell-based. Particulars: HL-60, 48 h. On the technique in general: Tetrazolium dyes change colour on reduction, which living cells bring about.
For the compound `C[C@@H](C(=O)O)c1c([C@@]2(C)CCCC(C)(C)C2)ccc2c1CN(CC(=O)O)C2=O`, the IC50 (usually the concentration that gives 50% inhibition) is greater than 10 µM.

Consider `C[C@@H](C(=O)O)c1c([C@@]2(C)CCCC(C)(C)C2)ccc2c1C(=O)N(CC(=O)O)C2`, for which the IC50 is greater than 10 µM.

With `C[C@@H](C(=O)O)c1c([C@@]2(C)CCCC(C)(C)C2)ccc2c1CN(CCc1cnc[nH]1)C2=O`, the IC50 was greater than 10 µM.

Compound `C[C@@H](C(=O)O)c1c([C@@]2(C)CCCC(C)(C)C2)ccc2c1CN(CCN)C2=O` showed an IC50 greater than 10 µM.

In turn, `CC(C)CN1Cc2c(ccc([C@@]3(C)CCCC(C)(C)C3)c2[C@@H](C)C(=O)O)C1=O` gave an IC50 greater than 10 µM.

`C[C@@H](C(=O)O)c1c([C@@]2(C)CCCC(C)(C)C2)ccc2c1CN(CCc1ccccc1)C2=O` showed an IC50 greater than 10 µM.

The compound `CCC(C)CN1Cc2c(ccc([C@@]3(C)CCCC(C)(C)C3)c2[C@@H](C)C(=O)O)C1=O` (some centres undefined) returned an IC50 greater than 10 µM.

The compound `CC(C)CCN1Cc2c(ccc([C@@]3(C)CCCC(C)(C)C3)c2[C@@H](C)C(=O)O)C1=O` returned an IC50 greater than 10 µM.

Consider `COC(=O)CN1Cc2c(ccc([C@@]3(C)CCCC(C)(C)C3)c2[C@@H](C)C(=O)O)C1=O`, for which the IC50 was greater than 10 µM.
